# Source: US20040259888A1, “Novel 4-aminofuropyrimidines and the use thereof” (priority 2001, published 2004)
row,Structure (SMILES),melting point [°C]
1,CN1CCC(N(C)c2ncnc3oc(-c4ccc(F)cc4)c(-c4ccc(F)cc4)c23)CC1,180 to 181
2,"COc1cc(OC)cc(-c2oc3ncnc(NC4CCCCCC4)c3c2-c2ccccc2)c1 [Example 1, N-Cycloheptyl-6-(3,5-dimethoxyphenyl)-5-phenylfuro[2,3-d]pyrimidine-4-amine]",151 to 152
3,"COc1cc(OC)cc(-c2oc3ncnc(N4CCCCC4)c3c2-c2ccccc2)c1 [Example 2, 6-(3,5-Dimethoxyphenyl)-5-phenyl-4-(1-piperidinyl)furo[2,3-d]pyrimidine]",152 to 153
4,"CN1CCN(c2ncnc3oc(-c4ccc([N+](=O)[O-])cc4)c(-c4ccc(F)cc4)c23)CC1 [Example 3, 5-(4-Fluorophenyl)-4-(4-methyl-1-piperazinyl)-6-(4-nitrophenyl)furo[2,3-d]pyrimidine]",> 250
5,"CN1CCN(c2ncnc3oc(-c4ccc(N5CCOCC5)nc4)c(-c4ccccc4)c23)CC1 [Example 7, 4-(4-Methyl-1-piperazinyl)-6-[N-(4-morpholinyl)-3-pyridinyl]-5-phenylfuro[2,3-d]pyrimidine]",255 to 257
6,COc1ccc(-c2oc3ncnc(N4CCN(CCO)CC4)c3c2-c2ccc(F)cc2)cc1OC [Example 39],156 to 158
7,O=C(Nc1ccc(-c2oc3ncnc(N4CCOCC4)c3c2-c2ccc(F)cc2)cc1)c1ccc([N+](=O)[O-])cc1 [Example 47],> 250
8,CN1CCN(c2ncnc3oc(-c4ccc(NC(=O)c5cccc([N+](=O)[O-])c5)cc4)c(-c4ccc(F)cc4)c23)CC1 [Example 48],> 250
9,CN1CCN(c2ncnc3oc(-c4ccc(NC(=O)C5CCCO5)cc4)c(-c4ccc(F)cc4)c23)CC1 (stereo not shown) [Example 49],> 250
10,COc1ccc(-c2oc3ncnc(N4CCC(C(N)=O)CC4)c3c2-c2ccc(F)cc2)cc1OC [Example 51],235 to 237
11,COc1ccc(-c2oc3ncnc(N4CCN(C)CC4)c3c2-c2ccc(F)cc2)cc1OC [Example 53],168 to 169
12,COc1ccc(C(=O)Nc2ccc(-c3oc4ncnc(N5CCN(C)CC5)c4c3-c3ccc(F)cc3)cc2)cc1 [Example 54],252 to 253
13,CC(=O)NC(C)C(=O)Nc1ccc(-c2oc3ncnc(N4CCOCC4)c3c2-c2ccc(F)cc2)cc1 (stereo not shown) [Example 55],250 to 252
14,CCN(CC)c1ncnc2oc(-c3ccc(OC)c(OC)c3)c(-c3ccccc3)c12 [Example 63],125 to 126
15,COc1ccc(-c2oc3ncnc(N4CCN(C(C)C)CC4)c3c2-c2ccc(F)cc2)cc1OC [Example 64],180 to 181
16,COc1cc(OC)cc(-c2oc3ncnc(NC4CCCCCC4)c3c2-c2ccc(F)cc2)c1 [Example 69],170 to 172
17,CN1CCN(c2ncnc3oc(-c4ccc(NC(=O)c5cccnc5)cc4)c(-c4ccc(F)cc4)c23)CC1 [Example 70],> 250
18,O=C(Nc1ccc(-c2oc3ncnc(N4CCOCC4)c3c2-c2ccc(F)cc2)cc1)C1CCCO1 (stereo not shown) [Example 71],201 to 202
19,CN1CCN(c2ncnc3oc(-c4ccc(NCc5ccccc5)cc4)c(-c4ccccc4)c23)CC1 [Example 75],161 to 163
20,COc1cc(OC)cc(-c2oc3ncnc(N4CCN(CCO)CC4)c3c2-c2ccc(F)cc2)c1 [Example 83],161 to 163

row,Structure (SMILES),melting point [°C]
1,COC(=O)c1ccc(C(=O)Nc2ccc(-c3oc4ncnc(N5CCN(C)CC5)c4c3-c3ccc(F)cc3)cc2)cc1 [Example 88],> 250
2,CN1CCN(c2ncnc3oc(-c4ccc(Cl)nc4)c(-c4ccccc4)c23)CC1 [Example 94],173 to 175
3,COc1cc(OC)cc(-c2oc3ncnc(NC(CO)CO)c3c2-c2ccccc2)c1 [Example 108],131 to 133
4,COc1ccc(-c2c(-c3ccc(OC)c(OC)c3)oc3ncnc(NC4CCCCC4)c23)cc1 [Example 109],181 to 182
5,COc1ccc(-c2oc3ncnc(N4CCC(O)CC4)c3c2-c2ccccc2)cc1OC [Example 111],176 to 178
6,COc1ccc(-c2oc3ncnc(N4CCN(CCO)CC4)c3c2-c2ccccc2)cc1OC [Example 112],188 to 189
7,COc1cc(OC)cc(-c2oc3ncnc(N4CCN(C)CC4)c3c2-c2ccccc2)c1 [Example 113],156 to 157
8,COc1ccc(-c2oc3ncnc(N4CCN(c5ccccn5)CC4)c3c2-c2ccc(F)cc2)cc1OC [Example 114],210 to 212
9,COc1ccc(-c2oc3ncnc(NC4CCCCCC4)c3c2-c2ccc(F)cc2)cc1OC [Example 115],180 to 182
10,COc1ccc(-c2oc3ncnc(N4CCOCC4)c3c2-c2ccc(F)cc2)cc1OC [Example 116],211 to 213
11,CN1CCN(c2ncnc3oc(-c4ccc(NC5CCCCC5)nc4)c(-c4ccccc4)c23)CC1 [Example 125],208 to 209
12,COc1cc(OC)cc(-c2oc3ncnc(NCCc4cccs4)c3c2-c2ccccc2)c1 [Example 134],152 to 153
13,COc1cc(OC)cc(-c2oc3ncnc(NC4CCCC4)c3c2-c2ccccc2)c1 [Example 135],153 to 154
14,COc1ccc(-c2oc3ncnc(N4CCCCCC4)c3c2-c2ccc(F)cc2)cc1OC [Example 141],148 to 150
15,COc1ccc(-c2oc3ncnc(N4CCC(C(N)=O)CC4)c3c2-c2ccccc2)cc1OC [Example 154],> 250
16,COc1cc(OC)cc(-c2oc3ncnc(N(C)CCO)c3c2-c2ccccc2)c1 [Example 157],132 to 134
17,COc1ccc(-c2oc3ncnc(N(CCO)CCO)c3c2-c2ccccc2)cc1OC [Example 159],137 to 139
18,COc1ccc(-c2oc3ncnc(Nc4ccncc4)c3c2-c2ccccc2)cc1OC [Example 172],> 250
19,CN1CCN(c2ccc(-c3oc4ncnc(N5CCN(C)CC5)c4c3-c3ccccc3)cn2)CC1 [Example 173],176 to 177
20,OCCN(Cc1ccccc1)c1ncnc2oc(-c3ccc(F)cc3)c(-c3ccc(F)cc3)c12 [Example 177],156 to 158
